Source: patent US20110288086A1, “POLYCYCLIC QUINAZOLINES, PREPARATION THEREOF, AND USE THEREOF” (priority 2010, published 2011)
Converted amounts (≈) assume the structure as drawn. Where a name gives a salt, the structure may show the parent alone.

Key:
[1] = system: K562 human chronicity marrow leukemic cells; assay: Tumor cell IC50, CCK-8 kit, K562; assay type: cell-based
Excerpt: (§1) The inhibitory activities of the compounds on tumor cells (IC50) in vitro
(§2) The IC50 (IC50, unit: μg/ml) values of the compounds on Hut78 T-Lymphocytic Leukemia cells, Jurkat E6-1 human T-cell lymphoma, PANC-1 human pancreatic cancer cells, A549 human lung cancer cells, K562 human chronicity marrow leukemic cells, Hep3B2. 1-7 human hepatoma carcinoma cells, MDA-MB-435s human breast carcinoma cells, Colo320 human rectal cancer cells, PC-3 human carcinoma of prostate, and HepG2 human hepatoma carcinoma cells were determined using a CCK-8 kit. Erlotinib hydrochloride was used as the positive control drug.

[2] = system: Colo320 human rectal cancer cells; assay: Tumor cell IC50, CCK-8 kit, Colo320; assay type: cell-based; conditions: COLO 320
Excerpt: as §1, §2

EGFR tyrosine kinase = EGFR tyrosine kinase (Homo sapiens, UniProt P00533); assay: EGFR tyrosine kinase inhibition in vitro (Invitrogen EGFR inhibitor screening kit PV3193)
Excerpt: The inhibitory activities of EGFR tyrosine kinase in vitro
Erlotinib hydrochloride was used as a positive control drug.

aurora kinase B = molecular target: T1, aurora kinase B (Homo sapiens, UniProt Q96GD4); assay: Aurora kinase B inhibition in vitro (Invitrogen aurora kinase screening kit PV3174); assay type: biochemical
T1 construct: purchased Invitrogen PV3174

[3] = system: PANC-1 human pancreatic cancer cells; assay: Tumor cell inhibition ratio, CCK-8 kit, PANC-1; conditions: PANC-1, read-out: Antiproliferative effect (inhibition ratio) PANC-1
Excerpt: (§3) The inhibitory activities of the compounds on tumor cells in vitro

[4] = system: PC-3 human carcinoma of prostate; assay: Tumor cell IC50, CCK-8 kit, PC-3; assay type: cell-based; conditions: PC-3 cells
Excerpt: as §1, §2

[5] = system: PC-3 human carcinoma of prostate; assay: Tumor cell inhibition ratio, CCK-8 kit, PC-3; conditions: read-out: Antiproliferative effect (inhibition ratio) PC-3
Excerpt: as §3

[6] = system: A549 human lung cancer cells; assay: Tumor cell IC50, CCK-8 kit, A549; assay type: cell-based
Excerpt: as §1, §2

[7] = system: MDA-MB-435s human breast carcinoma cells; assay: Tumor cell inhibition ratio, CCK-8 kit, MDA-MB-435s; conditions: read-out: Antiproliferative effect (inhibition ratio) 435s
Excerpt: as §3

[8] = system: K562 human chronicity marrow leukemic cells; assay: Tumor cell inhibition ratio, CCK-8 kit, K562; conditions: K562, read-out: Antiproliferative effect (inhibition ratio) K562
Excerpt: as §3

[9] = system: MDA-MB-435s human breast carcinoma cells; assay: Tumor cell IC50, CCK-8 kit, MDA-MB-435s; assay type: cell-based; conditions: 435s cells
Excerpt: as §1, §2

[10] = system: PANC-1 human pancreatic cancer cells; assay: Tumor cell IC50, CCK-8 kit, PANC-1; assay type: cell-based; conditions: PANC-1 cells
Excerpt: as §1, §2

[11] = system: Jurkat E6-1 human T-cell lymphoma; assay: Tumor cell inhibition ratio, CCK-8 kit, Jurkat E6-1; conditions: Jurkat E6.1, read-out: Antiproliferative effect (inhibition ratio) E6-1
Excerpt: as §3

[12] = system: Hut78 T-Lymphocytic Leukemia cells; assay: Tumor cell inhibition ratio, CCK-8 kit, Hut78; conditions: Homo sapiens, HuT78, read-out: Antiproliferative effect (inhibition ratio) Hut-78
Excerpt: as §3

[13] = system: Jurkat E6-1 human T-cell lymphoma; assay: Tumor cell IC50, CCK-8 kit, Jurkat E6-1; assay type: cell-based; conditions: E6-1 cells
Excerpt: as §1, §2

[14] = system: Hut78 T-Lymphocytic Leukemia cells; assay: Tumor cell IC50, CCK-8 kit, Hut78; assay type: cell-based; conditions: Homo sapiens, Hut-78 cells
Excerpt: as §1, §2

[15] = system: A549 human lung cancer cells; assay: Tumor cell inhibition ratio, CCK-8 kit, A549; conditions: A549, read-out: Antiproliferative effect (inhibition ratio) A549
Excerpt: as §3

[16] = system: Colo320 human rectal cancer cells; assay: Tumor cell inhibition ratio, CCK-8 kit, Colo320; conditions: COLO 320, read-out: Antiproliferative effect (inhibition ratio) Colo320
Excerpt: as §3

[17] = system: Hep3B2.1-7 human hepatoma carcinoma cells; assay: Tumor cell inhibition ratio, CCK-8 kit, Hep3B; conditions: read-out: Antiproliferative effect (inhibition ratio) Hep3B
Excerpt: as §3

[18] = system: Hep3B2. 1-7 human hepatoma carcinoma cells; assay: Tumor cell IC50, CCK-8 kit, Hep3B; assay type: cell-based
Excerpt: as §1, §2

EGFR tyrosine kinase, sequence (P00533 25-1210): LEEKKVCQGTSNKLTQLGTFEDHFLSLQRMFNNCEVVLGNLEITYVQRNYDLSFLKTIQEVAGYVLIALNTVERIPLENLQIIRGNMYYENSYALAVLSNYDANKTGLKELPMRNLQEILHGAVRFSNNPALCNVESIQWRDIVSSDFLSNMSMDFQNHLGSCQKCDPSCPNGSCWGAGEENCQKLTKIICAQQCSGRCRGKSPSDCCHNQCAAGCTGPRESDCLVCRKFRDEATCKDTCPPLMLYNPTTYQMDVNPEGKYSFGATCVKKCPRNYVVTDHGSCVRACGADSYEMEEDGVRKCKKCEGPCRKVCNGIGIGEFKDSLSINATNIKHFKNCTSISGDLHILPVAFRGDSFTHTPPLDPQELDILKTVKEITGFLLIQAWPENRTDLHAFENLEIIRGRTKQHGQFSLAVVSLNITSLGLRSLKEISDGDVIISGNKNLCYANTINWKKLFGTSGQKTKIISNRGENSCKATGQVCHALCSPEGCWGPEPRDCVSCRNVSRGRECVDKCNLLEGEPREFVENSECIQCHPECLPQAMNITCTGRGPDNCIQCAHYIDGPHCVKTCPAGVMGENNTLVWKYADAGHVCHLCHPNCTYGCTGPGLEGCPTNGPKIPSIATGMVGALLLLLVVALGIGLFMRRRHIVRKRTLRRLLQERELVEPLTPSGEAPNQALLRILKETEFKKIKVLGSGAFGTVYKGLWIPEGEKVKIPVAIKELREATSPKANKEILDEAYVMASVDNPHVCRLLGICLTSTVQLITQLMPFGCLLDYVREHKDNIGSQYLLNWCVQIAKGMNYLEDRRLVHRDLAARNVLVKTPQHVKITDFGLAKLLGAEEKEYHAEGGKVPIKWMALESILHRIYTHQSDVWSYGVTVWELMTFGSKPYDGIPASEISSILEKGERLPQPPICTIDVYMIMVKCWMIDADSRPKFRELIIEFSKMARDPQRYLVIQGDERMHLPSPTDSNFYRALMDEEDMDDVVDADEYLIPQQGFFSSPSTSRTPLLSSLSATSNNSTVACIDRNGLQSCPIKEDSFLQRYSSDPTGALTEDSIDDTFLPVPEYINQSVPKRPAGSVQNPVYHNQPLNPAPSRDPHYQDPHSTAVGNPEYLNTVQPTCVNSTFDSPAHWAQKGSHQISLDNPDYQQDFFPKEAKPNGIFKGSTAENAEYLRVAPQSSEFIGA
T1 sequence (Q96GD4 whole entry): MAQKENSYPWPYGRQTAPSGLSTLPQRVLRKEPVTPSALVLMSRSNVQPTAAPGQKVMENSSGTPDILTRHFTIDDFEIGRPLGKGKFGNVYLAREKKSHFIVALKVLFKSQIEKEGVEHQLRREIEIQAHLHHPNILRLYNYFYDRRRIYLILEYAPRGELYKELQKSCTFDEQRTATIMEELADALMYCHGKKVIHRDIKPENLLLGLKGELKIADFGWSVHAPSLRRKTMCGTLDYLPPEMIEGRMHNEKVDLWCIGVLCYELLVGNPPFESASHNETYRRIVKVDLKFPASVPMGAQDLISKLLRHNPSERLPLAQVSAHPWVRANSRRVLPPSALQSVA

Structure (SMILES)	IC50 [1] [µg/mL]	IC50 [2] [µg/mL]	The inhibition ratio of the compound on EGFR(%) (EGFR tyrosine kinase; 40 μM)	The inhibition ratio of the compound on EGFR(%) (EGFR tyrosine kinase; 200 μM)	The inhibition ratio of the compound on Aurora B(%) (aurora kinase B; 40 μM)	The inhibition ratio of the compound on Aurora B(%) (aurora kinase B; 200 μM)	inhibition at 10 µM [3] [%]	inhibition at 100 µM [3] [%]	IC50 [4] [µg/mL]	inhibition at 10 µM [5] [%]	inhibition at 100 µM [5] [%]	IC50 [6] [µg/mL]	inhibition at 10 µM [7] [%]	inhibition at 100 µM [7] [%]	inhibition at 10 µM [8] [%]	inhibition at 100 µM [8] [%]	IC50 [9] [µg/mL]	IC50 [10] [µg/mL]	inhibition at 10 µM [11] [%]	inhibition at 100 µM [11] [%]	other results
COCCOc1cc2c(cc1OCCOC)C1=Nc3ccc(F)c(Cl)c3CN1C=N2 [Compound V-13, 9-chloro-10-fluoro-2,3-bis(2-methoxyethoxy)-8H-quinazolino[4,3-b]quinazoline]	11 (≈ 25.3 µM)	9.88 (≈ 22.8 µM)	45.7	88.9	55.2	95.8	45.9	87.2	9.78 (≈ 22.5 µM)	61.4	87.7	10.7 (≈ 24.7 µM)	26.8	67.9	66.2	98.5	31.4 (≈ 72.4 µM)	14.9 (≈ 34.3 µM)	52.6	98	inhibition at 10 µM [12]: 66.2%; inhibition at 100 µM [12]: 101%; IC50 [13]: 3.89 µg/mL (≈ 8.97 µM); IC50 [14]: 0.62 µg/mL (≈ 1.43 µM); inhibition at 10 µM [15]: 43%; inhibition at 100 µM [15]: 91.1%; inhibition at 10 µM [16]: 59.7%; inhibition at 10 µM [17]: 64.7%; inhibition at 100 µM [17]: 102%; IC50 [18]: 0.32 µg/mL (≈ 0.738 µM)
C#Cc1ccc2c(c1)N=C1c3cc(OCCOC)c(OCCOC)cc3N=CN1C2 [Compound V-19, 11-ethynyl-2,3-bis(2-methoxyethoxy)-8H-quinazolino[4,3-b]quinazoline]	31.1 (≈ 76.7 µM)	10 (≈ 24.7 µM)	53.4	95.7	52.4	95.7	49.7	85.9	15.3 (≈ 37.8 µM)	62.2	92.7	50 (≈ 123 µM)	55.8	91.6	45.4	81.1	36.5 (≈ 90.1 µM)	27.3 (≈ 67.4 µM)	55.2	91.1	inhibition at 10 µM [12]: 33%; inhibition at 100 µM [12]: 63.8%; IC50 [13]: 12.5 µg/mL (≈ 30.7 µM); IC50 [14]: 47.4 µg/mL (≈ 117 µM); inhibition at 10 µM [15]: 48.6%; inhibition at 100 µM [15]: 90.7%; inhibition at 10 µM [16]: 37%; inhibition at 100 µM [16]: 89.6%; inhibition at 10 µM [17]: 53.5%; inhibition at 100 µM [17]: 85%; IC50 [18]: 9.32 µg/mL (≈ 23 µM)
C#Cc1cccc2c1CN1C=Nc3cc(OC)c(OC)cc3C1=N2 [Compound V-31, 9-ethynyl-2,3-dimethoxy-8H-quinazolino[4,3-b]quinazoline]	–	–	30.6	76.5	10.6	66.5	46.5	96.4	–	29.4	81.7	–	50.6	85.1	37.5	85	–	–	21.8	84.2	inhibition at 10 µM [12]: 41.1%; inhibition at 100 µM [12]: 72.2%; inhibition at 10 µM [15]: 28.8%; inhibition at 100 µM [15]: 32.8%; inhibition at 10 µM [16]: 30.8%; inhibition at 100 µM [16]: 92.8%; inhibition at 10 µM [17]: 31.9%; inhibition at 100 µM [17]: 62.2%
C#Cc1cccc(Nc2ncnc3cc(OCCOC)c(OCCOC)cc23)c1 [Erlotinib hydrochloride, reference compound]	39.9	40.4	–	–	–	–	–	–	54.2	–	–	19.3	–	–	–	–	13.1	32.5	–	–	IC50 [13]: 35.6 µg/mL; IC50 [14]: 43.2 µg/mL; IC50 [18]: 62.3 µg/mL
